According to patent US5158952A, “3-[2-[4-(6-fluoro-1,2-benzisoxozol-3-yl)-1-piperidinyl]ethyl]-6,7,8,9 tetrahydro-9-hydroxy-2-methyl-4H-pyrido [1,2-a]pyrimidin-4-one, compositions and method of use” (Janssen Pharmaceutica N.V., priority 1989, dated 1992):

Key:
Assay type in all cases: in vivo
[1] = tested on: dopamine; assay: apomorphine test in dogs (duration of action); details: for ED50: Canis lupus familiaris; for (APO)-dog test, ED50, 4 hr: 240 min; for (APO)-dog test, ED50, 16 hr: 960 min
From the text: The compounds of formula (I) show the additional advantage of being eliminated rather slowly from the body and thus of being long acting. This can be evidenced, for example, by measuring the plasma levels after oral administration to dogs and by the long acting antiemetic effect exerted by the present compounds on dogs challenged with the dopamine agonist apomorphine. Especially the compounds of formula (I) wherein R^3 is a higher alkylcarbonyloxy radical have a long duration of action. […] Consequently, the present compounds allow for a more efficient therapy: the slow elimination facilitates maintaining a stable plasma concentration at a non-toxic, effective level and the reduction in the number of administrations may be expected to result in better compliance of the subject to be treated with the prescribed medication.
(§1) The antipsychotic activity of the subject compounds is evidenced by the experimental data obtained in at least one of two different test procedures, viz. the combined apomorphine (APO), tryptamine (TRY) and norepinephrine (NOR) test in rats, and the apomorphine test in dogs. Said combined apomorphine, tryptamine and norepinephrine test is described in Ach. int. Pharmacodyn., 227, 238-253 (1977) and provides an empirical evaluation of the relative specificity with which drugs may effect particular neurotransmitter systems centrally (CNS) as well as peripherally. […] Said apomorphine test in dogs is described in Arzneim.-Forsch. (Drug Res.), 9, 765-767 (1959) and provides a measure of the duration of action of the tested compounds.

[2] = tested on: serotonin; assay: combined APO, TRY, NOR test in rats: tryptamine hyperaemia (peripheral); details: for ED50: Rattus norvegicus
From the text: as §1

[3] = tested on: dopamine; assay: combined apomorphine (APO), tryptamine (TRY) and norepinephrine (NOR) test in rats: apomorphine; details: for ED50: Rattus norvegicus
From the text: as §1

[4] = tested on: norepinephrine; assay: combined APO, TRY, NOR test in rats: norepinephrine; details: for ED50: Rattus norvegicus
From the text: as §1

[5] = tested on: serotonin; assay: combined APO, TRY, NOR test in rats: tryptamine convulsions (central); details: for ED50: Rattus norvegicus
From the text: as §1

[6] = 1 h, read-out: (APO)-dog test, ED50, 1 hr

| SMILES | ED50 [1, 6] | ED50 [2] | ED50 [3] | ED50 [4] | ED50 [5] | ED50 ([1]; 4 h, read-out: (APO)-dog test, ED50, 4 hr) | ED50 ([1]; 16 h, read-out: (APO)-dog test, ED50, 16 hr) | (APO)-dog test, ED50, 1 hr ([1]; 1 hr, 60 min) | (APO)-dog test, ED50, 4 hr [1] | (APO)-dog test, ED50, 16 hr [1] | (TRY)-hyperaemia ED50 [2] | (APO) ED50 [3] | (NOR) ED50 [4] | (TRY)-convulsions ED50 [5] |
| --- | --- | --- | --- | --- | --- | --- | --- | --- | --- | --- | --- | --- | --- | --- |
| CCCC(=O)OC1CCCn2c1nc(C)c(CCN1CCC(c3noc4cc(F)ccc34)CC1)c2=O (stereo not drawn) [Compound 5, [3-[2-[4-(6-fluoro-1,2-benzisoxazol-3-yl)-1-piperidinyl]ethyl]-6,7,8,9-tetrahydro-2-methyl-4-oxo-4H-pyrido[1,2-a]pyrimidin-9-yl]butanoate] | 0.008 mg/kg | 0.00125 mg/kg | 0.31 mg/kg | 0.16 mg/kg | 0.31 mg/kg |  |  |  |  |  |  |  |  |  |
| Cc1nc2n(c(=O)c1CCN1CCC(c3noc4cc(F)ccc34)CC1)CCCC2O (stereo not drawn) [Compound 1, 3-[2-[4-(6-fluoro-1,2-benzisoxazol-3-yl)-1-piperidinyl]ethyl]-6,7,8,9-tetrahydro-9-hydroxy-2-methyl-4H-pyrido[1,2-a]pyrimidin4-one] | 0.015 mg/kg | 0.002 mg/kg | 0.25 mg/kg | 0.08 mg/kg | 0.31 mg/kg | 0.015 mg/kg | 0.015 mg/kg |  |  |  |  |  |  |  |
| Cc1nc2n(c(=O)c1CCN1CCC(c3noc4cc(F)ccc34)CC1)CCCC2O (single isomer, unassigned; (-)) [Compound 3, (-)-3-[2-[4-(6-fluoro-1,2-benzisoxazol-3-yl)-1-piperidinyl]-ethyl]-6,7,8,9-tetrahydro-9-hydroxy-2-methyl-4H-pyrido[1,2-a]-pyrimidin-4-one] |  |  |  |  |  |  |  | 0.008 mg/kg | 0.007 mg/kg | 0.015 mg/kg | 0.00063 mg/kg | 0.31 mg/kg | 0.63 mg/kg | 0.31 mg/kg |
| Cc1nc2n(c(=O)c1CCN1CCC(c3noc4cc(F)ccc34)CC1)CCCC2O (single isomer, unassigned; (+)) [Compound 2, (+)-3-[2-[4-(6-fluoro-1,2-benzisoxazol-3-yl)-1-piperidinyl]ethyl]-6,7,8,9-tetrahydro-9-hydroxy-2-methyl-4H-pyrido[1,2-a]-pyrimidin-4-one] | 0.015 mg/kg |  | 0.31 mg/kg | 1.25 mg/kg |  |  |  |  | 0.03 mg/kg | 0.06 mg/kg | 0.00031 mg/kg |  |  | 0.08 mg/kg |
| CC(=O)OC1CCCn2c1nc(C)c(CCN1CCC(c3noc4cc(F)ccc34)CC1)c2=O (stereo not drawn) [Compound 4, 3-[2-[4-(6-fluoro-1,2-benzisoxazol-3-yl)-1-piperidinyl]ethyl]-6,7,8,9-tetrahydro-2-methyl-4-oxo-4H-pyrido[1,2-a]pyrimidin-9-ol acetate(ester)] | 0.015 mg/kg | 0.00031 mg/kg | 0.31 mg/kg |  | 0.08 mg/kg |  |  |  |  |  |  |  |  |  |
